The assay has as its system cell lines harbouring ras or FGFR3 activating mutations especially multiple myeloma cell lines. As to the kind of experiment: potency toward cell lines harbouring ras or FGFR3 activating mutations. The class given is cell-based. To be noted: especially multiple myeloma cell lines harbouring the ras or FGFR3.

Consider 1 molecule from US20090286770A1, “Use of Staurosporine Derivatives for the Treatment of Multiple Myeloma” (priority 2004, published 2009).

Each structure is given as a SMILES string.

`CO[C@@H]1[C@H](N(C)C(=O)c2ccccc2)C[C@H]2O[C@]1(C)n1c3ccccc3c3c4c(c5c6ccccc6n2c5c31)C(=O)NC4` [MIDOSTAURIN, N-[(9S,10R,11R,13R)-2,3,10,11,12,13-hexahydro-10-methoxy-9-methyl-1-oxo-9,13-epoxy-1H,9H-diindolo[1,2,3-gh:3′,2′,1′-lm]pyrrolo[3,4-j][1,7]benzodiazonin-11-yl]-N-methylbenzamide]: the “potency toward cell lines harbouring ras or FGFR3 activating mutations” value is listed as “unexpected high potency”.
